Data: patent US5834257A, “α-agarase and production process of oligosaccharides and monosaccharides” (Japan Tobacco Inc., priority 1995, dated 1998)

Test system: α-NAOS hydrolase (α-agarase) derived from Vibrio sp. JT0107-L4, N-terminal sequence SEQ ID NO:2
Assay: Michaelis constant and maximum velocity by Lineweaver-Burk plot, neoagarobiose degradation measured by HPLC
Assay type: biochemical
Details: substrate neoagarobiose, 20 mM potassium phosphate buffer pH 7.8, 30° C.
Method: The activity determination of purified or partially purified products of this enzyme is conducted as follows. After an enzyme reaction with neoagarobiose as the substrate, the amount of degraded neoagarobiose is calculated from the amount of intact neoagarobiose which is determined by HPLC. Details are as follows. A 0.1% solution of neoagarobiose dissolved in 20 mM potassium phosphate buffer (pH 7.8) is prepared. This solution, as the substrate, in a volume of 90 μl was mixed with 10 μl of the enzyme solution. The mixed solution is incubated at 30° C. for 5 to 30 minutes, preferably for 10 minutes; the reaction is stopped by heating in boiling water for 1 minute. This reaction solution in a volume of 10 μl is applied to a column, Capcell pak C-18 (manufactured by Shiseido) which is of 4.5 mm in internal diameter and 250 mm in length, and eluted at a flow rate of 1 ml/min using water as the eluent; the amount of neoagarobiose not degraded by the enzyme reaction, which has a retention time of about 4.5 minutes, is quantified. The amount of degraded neoagarobiose is calculated inversely from the value in this measurement, assuming that the amount of enzyme degrading 1 μmol neoagarobiose per minute is 1 U. Neoagarobiose consisting of 3,6-anhydro-L-galactose and D-galactose through α-1,3 bond was used as the substrate. Various substrate solutions of different concentration were prepared. […]

OC[C@H]1OC(O)[C@H](O)[C@@H](O[C@@H]2O[C@H]3CO[C@@H]([C@@H]2O)[C@@H]3O)[C@H]1O (some centres unmarked) [Neoagarobiose]
Km: 4.28 ± 5 mM | maximum velocity (1 U = 1 μmol neoagarobiose degraded per minute): 87 U/mg-protein
